Patent US20220324865A1 (Bayer Aktiengesellschaft, priority 2018, published 2022)
Counter-ions that a name gives are not always drawn.

Biological target: T1, human EP3 receptor (Homo sapiens, UniProt P43115)
T1 construct: expressed in transfected cells; host or cells: CHO K1 (Chinese Hamster Ovary), stably co-transfected with Galpha16 and mitochondrial clytin
T1 sequence (P43115 1-390): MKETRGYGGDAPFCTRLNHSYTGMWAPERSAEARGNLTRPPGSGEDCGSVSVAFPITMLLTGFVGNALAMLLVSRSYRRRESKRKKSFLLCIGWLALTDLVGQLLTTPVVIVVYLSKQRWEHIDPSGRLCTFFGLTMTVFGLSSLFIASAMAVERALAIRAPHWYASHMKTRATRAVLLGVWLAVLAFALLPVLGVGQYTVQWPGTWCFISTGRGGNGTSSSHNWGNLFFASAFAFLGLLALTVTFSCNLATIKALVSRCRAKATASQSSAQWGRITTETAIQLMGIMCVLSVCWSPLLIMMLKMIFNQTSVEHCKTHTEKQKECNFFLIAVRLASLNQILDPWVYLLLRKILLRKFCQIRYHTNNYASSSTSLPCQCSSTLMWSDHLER
Assay: Cellular in vitro assay for determining EP3 receptor activity (human EP3 cell line, sulprostone-stimulated calcium luminescence)
Format: cell-based
Details: CHO cells expressing human EP3 and mitochondrial Clytin; antagonist mode, sulprostone at EC50; read-out: EP3 CHO mtCLY ANTAG IC50
Method in brief: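 Antagonist activity was measured as inhibition of the luminescent calcium signal elicited by EC50 sulprostone, following 10 min compound pretreatment. The cell line was recombinant CHO K1 co-expressing human EP3, Gα16 and the photoprotein Clytin, reconstituted with coelenterazine.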

In order of falling IC50:
1. Cc1ccc(-c2cn3nc(C(=O)NC4(c5ccc(F)cc5)CCN(C)C4)cc3c(=O)[nH]2)cc1C (racemic) [6-362]  27 nM
2. CCn1ccc(C(C)NC(=O)c2cc3c(=O)[nH]c(-c4ccc5ccccc5c4)cn3n2)n1 (centres unmarked) [Example 2-54, N-[1-(1-Ethyl-1H-pyrazol-3-yl)ethyl]-6-(2-naphthyl)-4-oxo-4,5-dihydropyrazolo[1,5-a]pyrazine-2-carboxamide]  7.05 nM
3. COCc1c(C(=O)N[C@@H](c2ccc(F)cc2)C(F)(F)CO)nn2cc(-c3ccc(Cl)c(F)c3)[nH]c(=O)c12 [6-624]  6.7 nM
4. Cc1ccc(-c2cn3nc(C(=O)NCC(N)C(F)(F)F)c(C4CC4)c3c(=O)[nH]2)cc1F (racemic) [6-395]  6.6 nM
5. Cc1cc(-c2cn3nc(C(=O)NC(CO)c4ccc(F)cc4)c(C4CC4)c3c(=O)[nH]2)ccc1C(F)(F)F (racemic) [6-129]  5.45 nM
6. Cc1cccc2ncc(-c3cn4nc(C(=O)NC(c5ccc(F)cc5)C(C)C)c(C(C)C)c4c(=O)[nH]3)cc12 (centres unmarked) [Example 4-51, N-[1-(4-Fluorophenyl)-2-methylpropyl]-3-isopropyl-6-(5-methyl-3-quinolyl)-4-oxo-5H-pyrazolo[1,5-a]pyrazine-2-carboxamide]  4.05 nM
7. N#Cc1c(C(=O)NC2(c3ccc(Cl)cc3)CCC2)nn2cc(-c3ccc4ccccc4c3)[nH]c(=O)c12 [Example 3-62, N-[1-(4-Chlorophenyl)cyclobutyl]-3-cyano-6-(naphthalen-2-yl)-4-oxo-4,5-dihydropyrazolo[1,5-a]pyrazine-2-carboxamide]  4 nM
8. Cc1ccc(-c2cn3nc(C(=O)NC(C)c4cnc(OCC(F)(F)F)cn4)cc3c(=O)[nH]2)cc1C (centres unmarked) [6-2]  3.85 nM
9. Cc1c(C(=O)NC(C)c2ccccc2OC(F)F)nn2c(C)c(-c3ccc4ccccc4c3)[nH]c(=O)c12 (centres unmarked) [Example 3-43, N-[1-[2-(Difluoromethoxy)phenyl]ethyl]-3,7-dimethyl-6-(2-naphthyl)-4-oxo-5H-pyrazolo[1,5-a]pyrazine-2-carboxamide]  3.85 nM
10. Cc1ccc(-c2cn3nc(C(=O)N[C@@H](C)CO)c(C4CCC4)c3c(=O)[nH]2)cc1F [6-576]  3.75 nM
11. Cc1ccc(-c2cn3nc(C(=O)NCCN(C)C4CC4)c(C4CC4)c3c(=O)[nH]2)cc1F [6-384]  3.4 nM
12. Cc1ccc(-c2cn3nc(C(=O)NC4(c5ccc(F)cc5)CN(CC(F)(F)F)C4)c(C(F)(F)F)c3c(=O)[nH]2)cc1Cl [6-201]  3.05 nM
13. COC[C@@H](NC(=O)c1nn2cc(-c3cnc4cccc(C)c4c3)[nH]c(=O)c2c1C(C)C)c1ccccc1 [Example 1-87, N-[(1S)-2-Methoxy-1-phenylethyl]-6-(5-methylquinolin-3-yl)-4-oxo-3-(propan-2-yl)-4,5-dihydropyrazolo[1,5-a]pyrazine-2-carboxamide]  2.85 nM
14. C[C@H](NC(=O)c1nn2cc(-c3ccc(Cl)c(Cl)c3)[nH]c(=O)c2c1C1CC(F)(F)C1)C1CC1 [6-553]  2.8 nM
15. Cc1ccc(-c2cn3nc(C(=O)NCC(O)(C(F)(F)F)C(F)(F)F)c(C4CC4)c3c(=O)[nH]2)cc1Cl [6-261]  2.7 nM
16. COc1ccc(C(C)NC(=O)c2cc3c(=O)[nH]c(-c4ccc(C)c(C)c4)cn3n2)cn1 (centres unmarked) [Example 5-4, 6-(3,4-Dimethylphenyl)-N-[1-(6-methoxypyridin-3-yl)ethyl]-4-oxo-4,5-dihydropyrazolo[1,5-a]pyrazine-2-carboxamide]  2.5 nM
17. O=C(NCc1nc2ccccc2[nH]1)c1cc2c(=O)[nH]c(-c3ccc4ccccc4c3)cn2n1 [Example 2-24, N-(1H-Benzimidazol-2-ylmethyl)-6-(2-naphthyl)-4-oxo-4,5-dihydropyrazolo[1,5-a]pyrazine-2-carboxamide]  2.45 nM
18. COc1ccc(C(C)NC(=O)c2cc3c(=O)[nH]c(-c4ccc5ccccc5c4)cn3n2)cn1 (centres unmarked) [Example 1-104, N-[1-(6-Methompyridin-3-yl)ethyl]-6-(2-naphthyl)-4-oxo-5H-pyrazolo[1,5-a]pyrazine-2-carboxamide]  2.26 nM
19. CC[C@H](C)NC(=O)c1nn2cc(-c3ccc(C)c(Cl)c3)[nH]c(=O)c2c1C(F)(F)F [6-190]  2.25 nM
20. CC(C)C(NC(=O)c1cc2c(=O)[nH]c(-c3ccc4ccccc4c3)cn2n1)c1cccs1 (centres unmarked) [Example 2-38, N-[2-Methyl-1-(2-thienyl)propyl]-6-(2-naphthyl)-4-oxo-4,5-dihydropyrazolo[1,5-a]pyrazine-2-carboxamide]  2.05 nM
21. COc1ccc(C(C)NC(=O)c2nn3cc(-c4ccc5ccccc5c4)[nH]c(=O)c3c2C#N)cc1 (centres unmarked) [Example 3-51, 3-Cyano-N-[1-(4-methoxyphenyl)ethyl]-6-(2-naphthyl)-4-oxo-5H-pyrazolo[1,5-a]pyrazine-2-carboxamide]  1.85 nM
22. Cc1c(C(=O)NC(C)c2ccc(F)cc2)nn2c(C)c(-c3ccc4ccccc4c3)[nH]c(=O)c12 (centres unmarked) [Example 3-21, N-[1-(4-Fluorophenyl)ethyl]-3,7-dimethyl-6-(2-naphthyl)-4-oxo-5H-pyrazolo[1,5-a]pyrazine-2-carboxamide]  1.8 nM
23. O=C(N[C@H](CN1CCOCC1)c1ccccc1)c1cc2c(=O)[nH]c(-c3ccc4ccccc4c3)cn2n1 [Example 1-7, N-[(1S)-2-(Morpholin-4-yl)-1-phenylethyl]-6-(naphthalen-2-yl)-4-oxo-4,5-dihydropyrazolo[1,5-a]-pyrazine-2-carboxamide formic acid salt]  1.7 nM
24. O=C(N[C@H](CN1CC(F)(F)C1)c1ccccc1)c1cc2c(=O)[nH]c(-c3ccc4ccccc4c3)cn2n1 [6-544]  1.65 nM
25. C[C@H](NC(=O)c1nn2cc(-c3cc(Cl)c(Cl)cc3F)[nH]c(=O)c2c1C1CC1)C1CC1 [6-581]  1.6 nM
26. Cc1cccc2ncc(-c3cn4nc(C(=O)N[C@@H](CO)c5ccccc5)c(C(C)C)c4c(=O)[nH]3)cc12 [Example 4-67, N-[(7R)-2-Hydroxy-1-phenylethyl]-6-(5-methylquinolin-3-yl)-4-oxo-3-(propan-2-yl)-4,5-dihydropyrazolo[1,5-a]pyrazine-2-carboxamide]  1.55 nM
27. Cc1cc(-c2cn3nc(C(=O)NC4(c5ccc(F)cc5)CN(C5CC5)C4)c(C4CC4)c3c(=O)[nH]2)ccc1Cl [6-345]  1.55 nM
28. C[C@H](NC(=O)c1nn2cc(-c3ccc(Cl)c(Cl)c3)[nH]c(=O)c2c1C1CCC1)C1CC1 [6-569]  1.45 nM
29. Cc1ccc([C@@H](C)NC(=O)c2nn3cc(-c4ccc5ccccc5c4)[nH]c(=O)c3c2C#N)cc1 [Example 3-53, 3-Cyano-N-[(7R)-1-(4-methylphenyl)ethyl]-6-(naphthalen-2-yl)-4-oxo-4,5-dihydropyrazolo[1,5-a]pyrazine-2-carboxamide]  1.45 nM
30. Cc1cc(-c2cn3nc(C(=O)NCC(O)C(F)(F)F)c(C4CC4)c3c(=O)[nH]2)ccc1Cl (racemic) [6-312]  1.3 nM
31. O=C(NC1(c2ccc(F)cc2)CN(CC(F)F)C1)c1nn2cc(-c3ccc(Cl)c(F)c3)[nH]c(=O)c2c1C1CC1 [6-108]  1.3 nM
32. Cc1cc(-c2cn3nc(C(=O)NC(c4ccc(F)cc4)C4(O)CC4)c(C(F)(F)F)c3c(=O)[nH]2)ccc1Cl (single isomer, unassigned) [6-211]  1.18 nM
33. Cc1ccc(-c2cn3nc(C(=O)N[C@@H](c4ccc(F)cc4)C(F)(F)CO)c(C4CC4)c3c(=O)[nH]2)cc1Cl [6-256]  1.1 nM
34. CC(C)c1c(C(=O)N[C@H](CCO)c2ccc(F)cc2)nn2cc(-c3cccc(Cl)c3)[nH]c(=O)c12 [6-682]  1.09 nM
35. Cc1cccc2ncc(-c3cn4nc(C(=O)NC(C)c5ccccc5OC(F)F)c(C(C)C)c4c(=O)[nH]3)cc12 (centres unmarked) [Example 4-46, N-{1-[2-(Difluoromethoxy)phenyl]ethyl}-3-isopropyl-6-(5-methylquinolin-3-yl)-4-oxo-4,5-dihydropyrazolo[1,5-a]pyrazine-2-carboxamide]  1.05 nM
36. Cc1ccc(-c2cn3nc(C(=O)N[C@@H](C)C4CC4)c(C4CC4)c3c(=O)[nH]2)cc1C [6-439]  1 nM
37. Cc1cccc2ncc(-c3cn4nc(C(=O)N[C@H](CCO)c5ccc(F)cc5)c(C(C)C)c4c(=O)[nH]3)cc12 [Example 1-56, N-[(1R)-1-(4-Fluorophenyl)-3-hydroxypropyl]-6-(5-methylquinolin-3-yl)-4-oxo-3-(propan-2-yl)-4,5-dihydropyrazolo[1,5-a]pyrazine-2-carboxamide]  0.985 nM
38. Cc1cc(CNC(=O)c2nn3cc(-c4cnc5cccc(C)c5c4)[nH]c(=O)c3c2C(C)C)on1 [Example 4-41, N-[(3-Methyl-1,2-oxazol-5-yl)methyl]-6-(5-methylquinolin-3-yl)-4-oxo-3-(propan-2-yl)-4,5-dihydropyrazolo[1,5-a]pyrazine-2-carboxamide]  0.95 nM
39. Cc1ccc(-c2cn3nc(C(=O)NCC(O)C(F)(F)F)c(C(F)(F)F)c3c(=O)[nH]2)cc1C (racemic) [6-115]  0.95 nM
40. Cc1ccc(-c2cn3nc(C(=O)NCC(O)C(F)(F)F)c(C4CC4)c3c(=O)[nH]2)cc1C (single isomer, unassigned) [6-436]  0.84 nM
41. Cc1ccc(-c2cn3nc(C(=O)N[C@H](CCO)c4ccc(F)cc4)c(C4CC4)c3c(=O)[nH]2)cc1C [Example 1-83, 3-Cyclopropyl-6-(3,4-dimethylphenyl)-N-[(1R)-1-(4-fluorophenyl)-3-hydroxpropyl]-4-oxo-4,5-dihydropyrazolo[1,5-a]pyrazine-2-carboxamide]  0.523 nM
